Molecular target: T1, CPT-1a (carnitine palmitoyltransferase-1) (Mus musculus, UniProt P97742)
T1 sequence (P97742 2-773): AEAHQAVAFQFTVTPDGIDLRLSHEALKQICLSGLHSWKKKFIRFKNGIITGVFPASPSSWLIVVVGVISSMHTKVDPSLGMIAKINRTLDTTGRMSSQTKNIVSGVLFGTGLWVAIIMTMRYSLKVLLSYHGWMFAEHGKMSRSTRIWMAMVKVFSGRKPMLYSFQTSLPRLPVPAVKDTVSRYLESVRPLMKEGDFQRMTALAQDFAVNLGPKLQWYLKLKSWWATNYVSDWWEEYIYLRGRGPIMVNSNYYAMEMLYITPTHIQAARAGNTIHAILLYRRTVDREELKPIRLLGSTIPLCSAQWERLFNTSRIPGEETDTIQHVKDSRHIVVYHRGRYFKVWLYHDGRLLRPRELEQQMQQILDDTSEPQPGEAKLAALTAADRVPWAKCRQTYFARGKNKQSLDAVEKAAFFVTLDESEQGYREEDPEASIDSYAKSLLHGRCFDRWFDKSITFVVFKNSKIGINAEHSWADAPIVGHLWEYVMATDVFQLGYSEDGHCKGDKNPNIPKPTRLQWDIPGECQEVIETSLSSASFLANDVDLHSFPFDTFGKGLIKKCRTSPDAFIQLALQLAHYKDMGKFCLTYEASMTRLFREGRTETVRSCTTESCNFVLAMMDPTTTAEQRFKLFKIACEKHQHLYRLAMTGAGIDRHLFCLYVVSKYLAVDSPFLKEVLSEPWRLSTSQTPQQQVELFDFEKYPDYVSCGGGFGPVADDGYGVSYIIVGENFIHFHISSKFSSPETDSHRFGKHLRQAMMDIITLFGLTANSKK
Assay type: biochemical

SMILES: CCOC(=O)[C@@]1(CCCCCCOc2ccc(Cl)cc2)CO1 [Eto, etomoxir]
- palmitoyl-CoA-driven respiration in permeabilized mouse BMDMs pretreated with et: < 3 µM

Source: paper PMC6125190 (Cell metabolism, 2018)
